Data reported in paper PMC4335062, “Data-Driven Prediction and Design of bZIP Coiled-Coil Interactions” (PLoS Computational Biology, 2015).
pKd: −log10 of the molar value. Like-named read-outs stand apart in the source and are kept apart here. Where no end group is shown, it is not given here.

How the values were obtained:
Assay in all cases: Direct-binding FRET assay
NFE2L3 = target: T1, NFE2L3 (Homo sapiens, UniProt Q9Y4A8); settings: mean or single, read-out: Kd
T1 construct: made in house
T1 sequence (Q9Y4A8 578-641 limits assumed): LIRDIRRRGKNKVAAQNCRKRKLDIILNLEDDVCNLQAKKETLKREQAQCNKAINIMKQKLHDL
Protocol: (§1) The direct binding assay was performed manually in 384-well plates and is similar to a previously described assay. Wells were filled with 20 μL of 1 mM TCEP-HCl. A 4 μM stock of acceptor protein was made fresh in 1 mM TCEP-HCl, and 20 μL was titrated in 2-fold dilutions over the wells. […] The direct-binding FRET data were fit as previously described. Briefly, the Kd of the designed peptide homodimer was experimentally determined and used with previously determined target homodimer Kd values to determine the heterodimer Kd. The homodimer Kd values used for the human bZIPs were from; experiments done by […] et al. used the same protein constructs for the human bZIP proteins, the same buffer conditions, and the same assay. The fitting used a system of ordinary differential equations to describe the concentrations of homo and heterodimers formed by the donor (D) and acceptor (A) as a function of the heterodimer Kd. MATLAB was used to simulate the binding experiment for different Kd values, and the value that gave the best agreement between simulation and experiment was assigned. A minimum 15% change in the donor fluorescence upon titrating the acceptor peptide from 0 to 1000 nM was required for a fit to be attempted. If this minimum was not met, the interaction was classified as “NS” for no signal change. […] For such curves, we removed the first five points and re-fit the data.

NFE2 = target: T2, NFE2 (Homo sapiens, UniProt Q16621); settings: read-out: Kd
T2 construct: made in house
T2 sequence (Q16621 266-329 limits assumed): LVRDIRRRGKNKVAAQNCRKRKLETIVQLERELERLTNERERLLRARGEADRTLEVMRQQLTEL
Protocol: as §1

MAFF = target: T3, MAFF (Homo sapiens, UniProt Q9ULX9); settings: read-out: Kd
T3 construct: made in house
T3 sequence (Q9ULX9 51-114 limits assumed): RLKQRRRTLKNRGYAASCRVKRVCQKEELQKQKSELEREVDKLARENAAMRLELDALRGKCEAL
Protocol: as §1

BATF = target: T4, BATF (Homo sapiens, UniProt Q16520); settings: read-out: Kd
T4 construct: made in house
T4 sequence (Q16520 26-89 limits assumed): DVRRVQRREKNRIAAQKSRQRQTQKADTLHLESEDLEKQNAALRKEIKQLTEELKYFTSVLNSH
Outline: (§2)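 Acceptor protein, prepared fresh as a 4 μM stock in 1 mM TCEP-HCl, was titrated in 2-fold dilutions in 1 mM TCEP-HCl. Heterodimer Kd was obtained by ODE-based simulation, using the measured designed-peptide homodimer Kd and earlier target homodimer Kd values, and taking the best-fitting Kd.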

BATF2 = target: T5, BATF2 (Homo sapiens, UniProt Q8N1L9); settings: mean or single, read-out: Kd
T5 construct: made in house
T5 sequence (Q8N1L9 17-80 limits assumed): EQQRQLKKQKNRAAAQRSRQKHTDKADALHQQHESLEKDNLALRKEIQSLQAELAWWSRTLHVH
Outline: as §2

ATF2 = target: T6, ATF2 (Homo sapiens, UniProt P15336); settings: read-out: Kd
T6 construct: made in house
T6 sequence (P15336 352-415 limits assumed): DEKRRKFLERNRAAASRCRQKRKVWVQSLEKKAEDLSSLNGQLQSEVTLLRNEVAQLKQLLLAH
Outline: as §2

CREB3 = target: T7, CREB3 (Homo sapiens, UniProt O43889); settings: mean or single, read-out: Kd
T7 construct: made in house
T7 sequence (O43889 150-213 limits assumed): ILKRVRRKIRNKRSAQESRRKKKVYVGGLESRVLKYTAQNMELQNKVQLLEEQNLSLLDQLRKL
Outline: as §2

NFE2L2 = target: T8, NFE2L2 (Homo sapiens, UniProt Q16236); settings: read-out: Kd
T8 construct: made in house
T8 sequence (Q16236 497-560 limits assumed): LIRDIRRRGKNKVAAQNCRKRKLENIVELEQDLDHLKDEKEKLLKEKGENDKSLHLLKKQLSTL
Outline: as §2

[1] = 4°C, C-terminal rhodamine design
[2] = 4°C, N-terminal rhodamine design
[3] = 23°C, C-terminal rhodamine design
[4] = 23°C, N-terminal rhodamine design
[5] = 37°C, C-terminal rhodamine design
[6] = 37°C, N-terminal rhodamine design
[7] = 4°C, C-terminal fluorescein design as donor, TAMRA target titrated
[8] = 4°C, C-terminal rhodamine design, mean or single
[9] = 4°C, N-terminal rhodamine design, mean or single
[10] = 23°C, C-terminal fluorescein design as donor, TAMRA target titrated
[11] = 23°C, C-terminal rhodamine design, mean or single
[12] = 23°C, N-terminal rhodamine design, mean or single
[13] = 37°C, C-terminal fluorescein design as donor, TAMRA target titrated
[14] = 37°C, C-terminal rhodamine design, mean or single
[15] = 37°C, N-terminal rhodamine design, mean or single

For “EREAQLENRVAHLKEKNQELKAQNLHLKEALSEAQNRNQELKNDA [XBP1-d1]”, the pKd (NFE2L3; [1]) was < 6.00, the pKd (NFE2L3; [2]) was < 6.00 and the pKd (NFE2L3; [3]) was < 6.00. The pKd (NFE2L3; [4]) was < 6.00, the pKd (NFE2L3; [5]) was < 5.30 and the pKd (NFE2L3; [6]) was < 6.00. The pKd (NFE2; [7]) was < 6.00, the pKd (NFE2; [8]) was < 6.00 and the pKd (NFE2; [9]) was < 6.00. The pKd (NFE2; [10]) was < 6.00, the pKd (NFE2; [11]) was < 6.00 and the pKd (NFE2; [12]) was < 6.00. For the same sequence, the pKd (NFE2; [13]) was < 6.00, the pKd (NFE2; [14]) was < 6.00 and the pKd (NFE2; [15]) was < 6.00. For the same sequence, the pKd (MAFF; [7]) was < 6.00, the pKd (MAFF; [8]) was < 6.00 and the pKd (MAFF; [9]) was < 6.00. For the same sequence, the pKd (MAFF; [10]) was < 6.00, the pKd (MAFF; [11]) was < 6.00 and the pKd (MAFF; [12]) was < 6.00. The pKd (MAFF; [13]) was < 6.00, the pKd (MAFF; [14]) was < 6.00 and the pKd (MAFF; [15]) was < 6.00. For the same sequence, the pKd (BATF; [7]) was < 5.30, the pKd (BATF; [8]) was < 5.30 and the pKd (BATF; [9]) was < 6.00. The pKd (BATF; [10]) was < 6.00, the pKd (BATF; [11]) was < 6.00 and the pKd (BATF; [12]) was < 6.00. The pKd (BATF; [13]) was < 6.00, the pKd (BATF; [14]) was < 6.00 and the pKd (BATF; [15]) was < 6.00. For the same sequence, the pKd (BATF2; [1]) was > 6.70, the pKd (BATF2; [2]) was < 6.00 and the pKd (BATF2; [3]) was < 6.00. For the same sequence, the pKd (BATF2; [4]) was < 6.00, the pKd (BATF2; [5]) was < 6.00 and the pKd (BATF2; [6]) was < 6.00. The pKd (ATF2; [7]) was < 6.00, the pKd (ATF2; [8]) was < 6.00 and the pKd (ATF2; [9]) was < 6.00. The pKd (ATF2; [10]) was < 6.00, the pKd (ATF2; [11]) was < 6.00 and the pKd (ATF2; [12]) was < 6.00. For the same sequence, the pKd (ATF2; [13]) was < 6.00, the pKd (ATF2; [14]) was < 6.00 and the pKd (ATF2; [15]) was < 6.00. For the same sequence, the pKd (CREB3; [1]) was < 6.00, the pKd (CREB3; [2]) was < 6.00 and the pKd (CREB3; [3]) was < 6.00. For the same sequence, the pKd (CREB3; [4]) was < 6.00, the pKd (CREB3; [5]) was < 6.00 and the pKd (CREB3; [6]) was < 6.00. The pKd (NFE2L2; [7]) was < 6.00, the pKd (NFE2L2; [8]) was < 6.00 and the pKd (NFE2L2; [9]) was < 6.00. The pKd (NFE2L2; [10]) was < 6.00, the pKd (NFE2L2; [11]) was < 6.00 and the pKd (NFE2L2; [12]) was < 6.00. The pKd (NFE2L2; [13]) was < 6.00, the pKd (NFE2L2; [14]) was < 6.00 and the pKd (NFE2L2; [15]) was < 6.00.
